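Test compounds were applied to cells in 96-well plates for 48 hours at 5 doses. GI50 = concentration required for 50% inhibition of growth. At the TGI there is no net growth.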
What was measured:
Assay in all cases: DTP human tumour cell line panel, 48 h
SR leukemia = test system: SR leukemia
UO-31 renal = test system: UO-31 renal
HS 578T breast = test system: HS 578T breast
SNB-19 CNS = test system: SNB-19 CNS
ACHN renal = test system: ACHN renal
NCI-H460 lung = test system: NCI-H460 lung
SNB-75 CNS = test system: SNB-75 CNS
PC-3 prostate = test system: PC-3 prostate
NCI-H226 lung = test system: NCI-H226 lung
NCI/ADR-RES ovarian = test system: NCI/ADR-RES ovarian
M14 melanoma = test system: M14 melanoma
SN12C renal = test system: SN12C renal
SK-MEL-5 melanoma = test system: SK-MEL-5 melanoma
HOP-62 NSCLC = test system: HOP-62 NSCLC
MALME-3M melanoma = test system: MALME-3M melanoma
COLO 205 colon = test system: COLO 205 colon
HCT-15 colon = test system: HCT-15 colon
UACC-257 melanoma = test system: UACC-257 melanoma
HCC-2998 colon = test system: HCC-2998 colon
OVCAR-3 ovarian = test system: OVCAR-3 ovarian
CAKI-1 renal = test system: CAKI-1 renal
RPMI-8226 leukemia = test system: RPMI-8226 leukemia
MDA-MB-231 breast = test system: MDA-MB-231 breast
HL-60(TB) leukemia = test system: HL-60(TB) leukemia
DU-145 prostate = test system: DU-145 prostate
UACC-62 melanoma = test system: UACC-62 melanoma
TK-10 renal = test system: TK-10 renal
OVCAR-5 ovarian = test system: OVCAR-5 ovarian
MCF7 breast = test system: MCF7 breast
RXF 393 renal = test system: RXF 393 renal
HOP-92 NSCLC = test system: HOP-92 NSCLC
SF-268 CNS = test system: SF-268 CNS
HT29 colon = test system: HT29 colon
BT-549 breast = test system: BT-549 breast
MOLT-4 leukemia = test system: MOLT-4 leukemia
786-0 renal = test system: 786-0 renal
MDA-MB-435 = test system: MDA-MB-435
SK-OV-3 ovarian = test system: SK-OV-3 ovarian
SW-620 colon = test system: SW-620 colon
T-47D breast = test system: T-47D breast
KM12 colon = test system: KM12 colon
OVCAR-4 ovarian = test system: OVCAR-4 ovarian
LOX IMVI melanoma = test system: LOX IMVI melanoma
IGROV1 ovarian = test system: IGROV1 ovarian
NCI-H522 lung = test system: NCI-H522 lung
HCT-116 colon = test system: HCT-116 colon
SF-295 CNS = test system: SF-295 CNS
SK-MEL-28 melanoma = test system: SK-MEL-28 melanoma
NCI-H23 lung = test system: NCI-H23 lung
K-562 leukemia = test system: K-562 leukemia
A498 renal = test system: A498 renal
OVCAR-8 ovarian = test system: OVCAR-8 ovarian
SF-539 CNS = test system: SF-539 CNS
SK-MEL-2 melanoma = test system: SK-MEL-2 melanoma
U251 CNS = test system: U251 CNS
A549 NSCLC = test system: A549 NSCLC

COc1cc(/C=C/C(=O)c2ccc(NC(=O)CN3CCN(c4cc5c(cc4F)c(=O)c(C(=O)O)cn5C4CC4)CC3)cc2)cc(OC)c1OC
GI50 (SR leukemia): 0.245 µM | TGI (SR leukemia): > 100 µM | GI50 (UO-31 renal): 1.38 µM | TGI (UO-31 renal): 7.78 µM | GI50 (HS 578T breast): 16.3 µM | TGI (HS 578T breast): > 100 µM | GI50 (SNB-19 CNS): 2.71 µM | TGI (SNB-19 CNS): > 59.5 µM | GI50 (ACHN renal): 0.692 µM | TGI (ACHN renal): > 26.6 µM | GI50 (NCI-H460 lung): 0.497 µM | GI50 (SNB-75 CNS): 2.41 µM | TGI (SNB-75 CNS): > 23.9 µM | GI50 (PC-3 prostate): 0.782 µM | TGI (PC-3 prostate): > 100 µM | GI50 (NCI-H226 lung): 1.52 µM | TGI (NCI-H226 lung): > 51 µM | GI50 (NCI/ADR-RES ovarian): > 75.9 µM | TGI (NCI/ADR-RES ovarian): > 100 µM | GI50 (M14 melanoma): 1.15 µM | TGI (M14 melanoma): 13.6 µM | GI50 (SN12C renal): 0.632 µM | TGI (SN12C renal): 9.01 µM | GI50 (SK-MEL-5 melanoma): 0.871 µM | TGI (SK-MEL-5 melanoma): 4.39 µM | GI50 (HOP-62 NSCLC): 0.353 µM | TGI (HOP-62 NSCLC): 3.93 µM | GI50 (MALME-3M melanoma): 2.32 µM | TGI (MALME-3M melanoma): 14.5 µM | GI50 (COLO 205 colon): 1.34 µM | TGI (COLO 205 colon): 8.11 µM | GI50 (HCT-15 colon): 0.575 µM | TGI (HCT-15 colon): > 100 µM | GI50 (UACC-257 melanoma): 1.42 µM | TGI (UACC-257 melanoma): 65.4 µM | GI50 (HCC-2998 colon): 3.16 µM | TGI (HCC-2998 colon): 14.1 µM | GI50 (OVCAR-3 ovarian): 0.364 µM | TGI (OVCAR-3 ovarian): 1.37 µM | GI50 (CAKI-1 renal): 1.47 µM | TGI (CAKI-1 renal): > 32.5 µM | GI50 (RPMI-8226 leukemia): 0.31 µM | GI50 (MDA-MB-231 breast): 0.712 µM | TGI (MDA-MB-231 breast): 6.36 µM | GI50 (HL-60(TB) leukemia): 1.75 µM | TGI (HL-60(TB) leukemia): > 29.8 µM | GI50 (DU-145 prostate): 1.07 µM | TGI (DU-145 prostate): > 27.1 µM | GI50 (UACC-62 melanoma): 0.887 µM | TGI (UACC-62 melanoma): 3.39 µM | GI50 (TK-10 renal): 1.8 µM | TGI (TK-10 renal): 12.9 µM | GI50 (OVCAR-5 ovarian): 2.96 µM | TGI (OVCAR-5 ovarian): > 27.1 µM | GI50 (MCF7 breast): 0.381 µM | TGI (MCF7 breast): > 100 µM | GI50 (RXF 393 renal): 0.273 µM | TGI (RXF 393 renal): 0.803 µM | GI50 (HOP-92 NSCLC): 1.79 µM | TGI (HOP-92 NSCLC): 7.58 µM | GI50 (SF-268 CNS): 1.09 µM | TGI (SF-268 CNS): 20.4 µM | GI50 (HT29 colon): 0.285 µM | TGI (HT29 colon): 1.02 µM | GI50 (BT-549 breast): 0.405 µM | TGI (BT-549 breast): 1.44 µM | GI50 (MOLT-4 leukemia): 1.27 µM | TGI (MOLT-4 leukemia): > 100 µM | GI50 (786-0 renal): 0.947 µM | TGI (786-0 renal): 3.19 µM | GI50 (MDA-MB-435): 0.433 µM | GI50 (SK-OV-3 ovarian): 2.58 µM | TGI (SK-OV-3 ovarian): > 29.8 µM | GI50 (SW-620 colon): 0.485 µM | GI50 (T-47D breast): 1.67 µM | TGI (T-47D breast): > 57 µM | GI50 (KM12 colon): 0.451 µM | TGI (KM12 colon): 2.31 µM | GI50 (OVCAR-4 ovarian): 1.38 µM | TGI (OVCAR-4 ovarian): 22.3 µM | GI50 (LOX IMVI melanoma): 0.511 µM | TGI (LOX IMVI melanoma): 2.24 µM | GI50 (IGROV1 ovarian): 0.671 µM | TGI (IGROV1 ovarian): 3.37 µM | GI50 (NCI-H522 lung): 0.976 µM | TGI (NCI-H522 lung): 3.77 µM | GI50 (HCT-116 colon): 0.324 µM | TGI (HCT-116 colon): 1.31 µM | GI50 (SF-295 CNS): 0.98 µM | TGI (SF-295 CNS): 3.69 µM | GI50 (SK-MEL-28 melanoma): 1.42 µM | TGI (SK-MEL-28 melanoma): 12.7 µM | GI50 (NCI-H23 lung): 0.971 µM | TGI (NCI-H23 lung): 4.89 µM | GI50 (K-562 leukemia): 0.36 µM | TGI (K-562 leukemia): > 100 µM | GI50 (A498 renal): 0.825 µM | TGI (A498 renal): 2.83 µM | GI50 (OVCAR-8 ovarian): 0.401 µM | TGI (OVCAR-8 ovarian): 26.9 µM | GI50 (SF-539 CNS): 0.721 µM | TGI (SF-539 CNS): 3.03 µM | GI50 (SK-MEL-2 melanoma): 2.21 µM | TGI (SK-MEL-2 melanoma): 5.78 µM | GI50 (U251 CNS): 0.373 µM | TGI (U251 CNS): 1.47 µM | GI50 (A549 NSCLC): 0.368 µM | TGI (A549 NSCLC): 2.14 µM

From PubChem BioAssay (NCI)
